This note sets out measurements from ChEMBL document CHEMBL1275558 (Antimicrob Agents Chemother, 2008).

pIC50: −log10 of the molar value.

A short description of data set [1]: Cytotoxicity against human foreskin fibroblast cell infected with Toxoplasma gondii. The conditions noted are these: read-out: TD50 (the source's name). It is filed as cell-based.
Another data set concerns Toxoplasma gondii. Description: Antimicrobial activity against Toxoplasma gondii. It is filed as functional. Particulars: read-out: ID50 (the source's name).
Data set [2] in a line: Therapeutic index, ration of TD50 for human foreskin fibroblast cell infected with Toxoplasma gondii to ID 50 for Toxoplasma gondii. The conditions noted are these: read-out: TI. It is filed as cell-based.

For `O=C1Nc2ccc(F)cc2/C1=C1/Nc2ccccc2/C1=N\O`, the CC50 in data set [1] stood at 61 µM. Further, the pIC50 in the data set on Toxoplasma gondii was 6.28. Also, the selectivity ratio in data set [2] came to 120.
On to `Cc1ccc2c(c1)/C(=C1/Nc3ccccc3/C1=N\O)C(=O)N2`, for which the CC50 in data set [1] is more than 500 µM. Also, in the data set with Toxoplasma gondii, the pIC50 was less than 3.30.
Turning to `O=C1c2cc(F)ccc2-n2c1nc1ccccc1c2=O`, the CC50 in data set [1] was found to be 63 µM. The pIC50 in the data set on Toxoplasma gondii is 8.70. For the same molecule, in data set [2], the selectivity ratio was 31500.
As to `Cc1ccc2[nH]c(O)c(C3=Nc4ccccc4C3=O)c2c1`, the CC50 in data set [1] is more than 500 µM. Moreover, the pIC50 with Toxoplasma gondii is less than 3.30.
`O=C1C(c2c(O)[nH]c3ccc(S(=O)(=O)O)cc23)=Nc2ccccc21`: in data set [1], the CC50 was more than 500 µM. Moreover, the pIC50 in the data set with Toxoplasma gondii is less than 3.30.
In the case of `O=C1Nc2cc(Cl)c(Br)cc2/C1=C1/Nc2ccccc2/C1=N\O`, in data set [1], the CC50 is more than 500 µM. Also, the pIC50 in the data set with Toxoplasma gondii is 5.62. The selectivity ratio in data set [2] was more than 210.
For the molecule `O=C1c2cc(I)ccc2-n2c1nc1ccccc1c2=O`, the CC50 in data set [1] is more than 500 µM. The pIC50 in the data set on Toxoplasma gondii was 7.70.
On to `O=C1c2ccc(Cl)cc2-n2c1nc1ccccc1c2=O`, for which, in data set [1], the CC50 is more than 500 µM. Moreover, the pIC50 in the data set with Toxoplasma gondii is 5.20. Further, the selectivity ratio in data set [2] was more than 80.
The like results for `O=C1c2ccc(Br)cc2-n2c1nc1ccccc1c2=O` were, in that order, more than 500 µM, 5.52 and more than 160.
For `O=C1Nc2ccccc2/C1=C1/Nc2ccccc2/C1=N\OCC(O)CO` (stereo not given), the CC50 in data set [1] was more than 500 µM. Also, in the data set on Toxoplasma gondii, the pIC50 was 3.64. The selectivity ratio in data set [2] is more than 2.
`O=C1c2cc(Br)c(Cl)cc2-n2c1nc1ccccc1c2=O`: the CC50 in data set [1] is 100 µM. In addition, the pIC50 with Toxoplasma gondii was 5.77. For the same molecule, the selectivity ratio in data set [2] amounted to 59.
As to `O=C1Nc2cc(Cl)c(Br)cc2/C1=C1/Nc2ccccc2C1=O`, the CC50 in data set [1] is more than 500 µM. For the same molecule, the pIC50 with Toxoplasma gondii is less than 3.30.
In the case of `CC(=O)N1C(=O)/C(=C2\Nc3ccccc3C2=O)c2ccccc21`, the CC50 in data set [1] was more than 500 µM. Further, the pIC50 in the data set on Toxoplasma gondii is 4.52. Also, the selectivity ratio in data set [2] was more than 16.
Consider `O=Nc1c(-c2c(O)[nH]c3cc(Cl)ccc23)[nH]c2ccccc12`, for which, in data set [1], the CC50 stood at 20 µM. Moreover, the pIC50 with Toxoplasma gondii is 6.74. The selectivity ratio in data set [2] was determined as 110.
The like results for `O=C1C(c2c(O)[nH]c3ccc(I)cc23)=Nc2ccccc21` were, in that order, 240 µM, 4.66 and 11.
With `O=C1C(c2c(O)[nH]c3ccc(Br)cc23)=Nc2ccccc21`, the CC50 in data set [1] was more than 500 µM. Further, the pIC50 with Toxoplasma gondii is 4.57. Also, the selectivity ratio in data set [2] is more than 19.
Consider `O=C1C(c2c(O)[nH]c3ccc([N+](=O)[O-])cc23)=Nc2ccccc21`, for which the CC50 in data set [1] was more than 500 µM. Besides, the pIC50 in the data set on Toxoplasma gondii was less than 3.30.
Consider `CC(=O)O/N=C1/C(c2c(O)[nH]c3ccccc23)=Nc2ccccc21`, for which, in data set [1], the CC50 turned out to be 22 µM. For the same molecule, the pIC50 in the data set with Toxoplasma gondii was 6.68. Moreover, the selectivity ratio in data set [2] is 100.
Turning to `O=C1c2cc(Cl)ccc2-n2c1nc1ccccc1c2=O`, in data set [1], the CC50 was determined as 360 µM. Besides, the pIC50 in the data set with Toxoplasma gondii is 7.96. Also, in data set [2], the selectivity ratio came to 33000.
In the same order, the values of `Cc1ccc2c(c1)C(=O)c1nc3ccccc3c(=O)n1-2` are more than 500 µM, 7.09 and more than 6100.
The like results for `O=Nc1c(-c2c(O)[nH]c3ccc(I)cc23)[nH]c2ccccc12` were, in that order, 47 µM, 5.01 and 5.
As to `O=C1C(c2c(O)[nH]c3ccc(Cl)cc23)=Nc2ccccc21`, in data set [1], the CC50 is more than 500 µM. In addition, the pIC50 in the data set with Toxoplasma gondii was 4.22. In addition, the selectivity ratio in data set [2] was more than 8.
As for `O=C1C(c2c(O)[nH]c3ccc(F)cc23)=Nc2ccccc21`, in data set [1], the CC50 is more than 500 µM. In addition, the pIC50 in the data set with Toxoplasma gondii is less than 3.30.
In the same order, the values of `O=C1C(c2c(O)[nH]c3cc(Cl)ccc23)=Nc2ccccc21` are more than 500 µM and less than 3.30.
As for `O=Nc1c(-c2c(O)[nH]c3ccc([N+](=O)[O-])cc23)[nH]c2ccccc12`, the CC50 in data set [1] stood at 27 µM. In the data set on Toxoplasma gondii, the pIC50 was 5.96. Moreover, the selectivity ratio in data set [2] is 25.
`O=C1Nc2ccc(S(=O)(=O)O)cc2/C1=C1/Nc2ccccc2/C1=N\O`: the CC50 in data set [1] is more than 500 µM. Moreover, the pIC50 with Toxoplasma gondii is less than 3.30.
As to `O=C1Nc2ccc(Cl)cc2/C1=C1/Nc2ccccc2/C1=N\O`, the CC50 in data set [1] is 51 µM. The pIC50 in the data set on Toxoplasma gondii is 5.66. Besides, the selectivity ratio in data set [2] is 23.
On to `O=C1c2cc(Br)ccc2-n2c1nc1ccccc1c2=O`, for which the CC50 in data set [1] was more than 500 µM. Further, the pIC50 with Toxoplasma gondii is 8.52. Also, the selectivity ratio in data set [2] was more than 160000.
In the case of `CC(=O)O/N=C1/C(=C2/C(=O)Nc3cc(Br)ccc32)Nc2ccccc21` [6-BROMOINDIRUBIN-3'-ACETOXIME], the CC50 in data set [1] was determined as 46 µM. The pIC50 in the data set with Toxoplasma gondii is 5.43. In addition, the selectivity ratio in data set [2] amounted to 12.
Regarding `O=C1Nc2cc(Br)ccc2/C1=C1/Nc2ccccc2/C1=N\O` [6BIO], in data set [1], the CC50 worked out at 16 µM.
As to `O=C1Nc2ccc(Br)cc2/C1=C1/Nc2ccccc2/C1=N\O` [INDIRUBIN 2], the CC50 in data set [1] is 17 µM. Further, in the data set on Toxoplasma gondii, the pIC50 is 5.74. The selectivity ratio in data set [2] is 9.
Turning to `O=Nc1c(-c2c(O)[nH]c3ccccc23)[nH]c2ccccc12` [INDIRUBIN-3-MONOXIME], the CC50 in data set [1] is more than 500 µM. Also, in the data set with Toxoplasma gondii, the pIC50 is 5.44. For the same molecule, the selectivity ratio in data set [2] is more than 139.
Consider `O=C1Nc2ccccc2/C1=C1/Nc2ccccc2C1=O` [INDIRUBIN], for which the CC50 in data set [1] was more than 500 µM. Besides, the pIC50 with Toxoplasma gondii was less than 3.30.
In the case of `O=C1c2ccccc2-n2c1nc1ccccc1c2=O` [TRYPTANTHRIN], the CC50 in data set [1] came out at 62 µM. Also, in the data set with Toxoplasma gondii, the pIC50 is 7.51. Besides, the selectivity ratio in data set [2] was 2000.
